# Results: the NIST ThermoML archive (doi:10.1016/j.tca.2005.08.034)
# Numbers after ± are expanded uncertainties.
# Tests used:
# [1] = xn = mol fraction of the nth substance listed; conditions: 298.15 K; for surface tension liquid-gas: Drop volume; for mass density / speed of sound: 101.3 kPa, Liquid; for mass density: Vibrating tube method
# [2] = refractive index (Na D-line) (dimensionless); φn = volume fraction of the nth substance listed; conditions: 298.15 K, 101.3 kPa, Liquid, refractometer
# [3] = excess molar enthalpy (molar enthalpy of mixing); xn = mol fraction of the nth substance listed; conditions: 298.15 K, 101.3 kPa, Liquid, Flow calorimetry
smiles,measurement,setting,value
CC1CCCO1 (stereo not given) [2-methyltetrahydrofuran] + c1ccccc1,surface tension liquid-gas,[1]; x1 = 0.0536,28.33 ± 0.32 mN/m
same,surface tension liquid-gas,[1]; x1 = 0.0971,28.15 ± 0.32 mN/m
same,surface tension liquid-gas,[1]; x1 = 0.1962,27.74 ± 0.31 mN/m
same,surface tension liquid-gas,[1]; x1 = 0.3039,27.3 ± 0.31 mN/m
same,surface tension liquid-gas,[1]; x1 = 0.396,26.92 ± 0.31 mN/m
same,surface tension liquid-gas,[1]; x1 = 0.4976,26.51 ± 0.31 mN/m
same,surface tension liquid-gas,[1]; x1 = 0.5976,26.12 ± 0.31 mN/m
same,surface tension liquid-gas,[1]; x1 = 0.704,25.71 ± 0.31 mN/m
same,surface tension liquid-gas,[1]; x1 = 0.8033,25.36 ± 0.31 mN/m
same,surface tension liquid-gas,[1]; x1 = 0.9034,25.01 ± 0.31 mN/m
same,surface tension liquid-gas,[1]; x1 = 0.9535,24.84 ± 0.31 mN/m
same,mass density,[1]; x1 = 0.0456,872.27 ± 0.13 kg/m3
same,mass density,[1]; x1 = 0.0981,871 ± 0.14 kg/m3
same,mass density,[1]; x1 = 0.1987,868.57 ± 0.17 kg/m3
same,mass density,[1]; x1 = 0.2996,866.21 ± 0.2 kg/m3
same,mass density,[1]; x1 = 0.395,863.99 ± 0.23 kg/m3
same,mass density,[1]; x1 = 0.4979,861.47 ± 0.27 kg/m3
same,mass density,[1]; x1 = 0.5949,859.05 ± 0.3 kg/m3
same,mass density,[1]; x1 = 0.6798,856.87 ± 0.33 kg/m3
same,mass density,[1]; x1 = 0.7992,853.68 ± 0.37 kg/m3
same,mass density,[1]; x1 = 0.896,851.23 ± 0.41 kg/m3
same,mass density,[1]; x1 = 0.9486,850.1 ± 0.43 kg/m3
same,speed of sound,[1]; x1 = 0.0456,1295.7 ± 2.1 m/s
same,speed of sound,[1]; x1 = 0.0981,1290.9 ± 2.1 m/s
same,speed of sound,[1]; x1 = 0.1987,1281.6 ± 2.1 m/s
same,speed of sound,[1]; x1 = 0.2996,1271.8 ± 2.1 m/s
same,speed of sound,[1]; x1 = 0.395,1263 ± 2.1 m/s
same,speed of sound,[1]; x1 = 0.4979,1253.1 ± 2.1 m/s
same,speed of sound,[1]; x1 = 0.5949,1243.6 ± 2.2 m/s
same,speed of sound,[1]; x1 = 0.6798,1235.1 ± 2.2 m/s
same,speed of sound,[1]; x1 = 0.7992,1222.7 ± 2.2 m/s
same,speed of sound,[1]; x1 = 0.896,1212.7 ± 2.3 m/s
same,speed of sound,[1]; x1 = 0.9486,1207.5 ± 2.3 m/s
same,refractive index,[2]; φ1 = 0.0603,1.49204 ± 9.3e-05
same,refractive index,[2]; φ1 = 0.1086,1.48747 ± 9.7e-05
same,refractive index,[2]; φ1 = 0.2167,1.47724 ± 0.00011
same,refractive index,[2]; φ1 = 0.331,1.46642 ± 0.00012
same,refractive index,[2]; φ1 = 0.4263,1.4574 ± 0.00014
same,refractive index,[2]; φ1 = 0.5289,1.44769 ± 0.00015
same,refractive index,[2]; φ1 = 0.6273,1.43835 ± 0.00016
same,refractive index,[2]; φ1 = 0.7294,1.42866 ± 0.00018
same,refractive index,[2]; φ1 = 0.8223,1.41981 ± 0.00019
same,refractive index,[2]; φ1 = 0.9137,1.41109 ± 0.0002
same,refractive index,[2]; φ1 = 0.9587,1.40681 ± 0.00021
same,excess molar enthalpy,[3]; x1 = 0.054,-0.00526 ± 0.000478 kcal/mol
same,excess molar enthalpy,[3]; x1 = 0.097,-0.011 ± 0.000478 kcal/mol
same,excess molar enthalpy,[3]; x1 = 0.188,-0.0232 ± 0.000717 kcal/mol
same,excess molar enthalpy,[3]; x1 = 0.279,-0.033 ± 0.000717 kcal/mol
same,excess molar enthalpy,[3]; x1 = 0.377,-0.0409 ± 0.000956 kcal/mol
same,excess molar enthalpy,[3]; x1 = 0.494,-0.0449 ± 0.000956 kcal/mol
same,excess molar enthalpy,[3]; x1 = 0.575,-0.0464 ± 0.000956 kcal/mol
same,excess molar enthalpy,[3]; x1 = 0.679,-0.0423 ± 0.000956 kcal/mol
same,excess molar enthalpy,[3]; x1 = 0.783,-0.0332 ± 0.000717 kcal/mol
same,excess molar enthalpy,[3]; x1 = 0.89,-0.0196 ± 0.000478 kcal/mol
same,excess molar enthalpy,[3]; x1 = 0.944,-0.0108 ± 0.000478 kcal/mol
Fc1ccccc1 [fluorobenzene] + CC1CCCO1,surface tension liquid-gas,[1]; x2 = 0.0364,27.39 ± 0.34 mN/m
same,surface tension liquid-gas,[1]; x2 = 0.108,27.27 ± 0.33 mN/m
same,surface tension liquid-gas,[1]; x2 = 0.1998,27.07 ± 0.33 mN/m
same,surface tension liquid-gas,[1]; x2 = 0.2952,26.83 ± 0.33 mN/m
same,surface tension liquid-gas,[1]; x2 = 0.3998,26.52 ± 0.33 mN/m
same,surface tension liquid-gas,[1]; x2 = 0.4958,26.21 ± 0.32 mN/m
same,surface tension liquid-gas,[1]; x2 = 0.6048,25.86 ± 0.32 mN/m
same,surface tension liquid-gas,[1]; x2 = 0.6784,25.62 ± 0.32 mN/m
same,surface tension liquid-gas,[1]; x2 = 0.7796,25.3 ± 0.31 mN/m
same,surface tension liquid-gas,[1]; x2 = 0.9097,24.92 ± 0.31 mN/m
same,surface tension liquid-gas,[1]; x2 = 0.9707,24.76 ± 0.31 mN/m
same,mass density,[1]; x2 = 0.0456,1011.05 ± 0.52 kg/m3
same,mass density,[1]; x2 = 0.099,1001.97 ± 0.51 kg/m3
same,mass density,[1]; x2 = 0.1923,986.13 ± 0.5 kg/m3
same,mass density,[1]; x2 = 0.2882,969.82 ± 0.5 kg/m3
same,mass density,[1]; x2 = 0.3925,952.32 ± 0.49 kg/m3
same,mass density,[1]; x2 = 0.4884,936.02 ± 0.49 kg/m3
same,mass density,[1]; x2 = 0.5925,918.32 ± 0.48 kg/m3
same,mass density,[1]; x2 = 0.6907,901.51 ± 0.47 kg/m3
same,mass density,[1]; x2 = 0.7942,883.72 ± 0.46 kg/m3
same,mass density,[1]; x2 = 0.8938,866.65 ± 0.45 kg/m3
same,mass density,[1]; x2 = 0.9481,857.59 ± 0.45 kg/m3
same,speed of sound,[1]; x2 = 0.0456,1168.5 ± 2.3 m/s
same,speed of sound,[1]; x2 = 0.099,1171.6 ± 2.3 m/s
same,speed of sound,[1]; x2 = 0.1923,1176.9 ± 2.3 m/s
same,speed of sound,[1]; x2 = 0.2882,1182.1 ± 2.3 m/s
same,speed of sound,[1]; x2 = 0.3925,1187.1 ± 2.3 m/s
same,speed of sound,[1]; x2 = 0.4884,1191.1 ± 2.3 m/s
same,speed of sound,[1]; x2 = 0.5925,1194.8 ± 2.3 m/s
same,speed of sound,[1]; x2 = 0.6907,1197.6 ± 2.3 m/s
same,speed of sound,[1]; x2 = 0.7942,1199.4 ± 2.3 m/s
same,speed of sound,[1]; x2 = 0.8938,1201 ± 2.3 m/s
same,speed of sound,[1]; x2 = 0.9481,1201.9 ± 2.3 m/s
same,refractive index,[2]; φ2 = 0.039,1.4608 ± 0.00022
same,refractive index,[2]; φ2 = 0.1151,1.45666 ± 0.00022
same,refractive index,[2]; φ2 = 0.2069,1.4516 ± 0.00022
same,refractive index,[2]; φ2 = 0.3103,1.44577 ± 0.00022
same,refractive index,[2]; φ2 = 0.4171,1.4396 ± 0.00022
same,refractive index,[2]; φ2 = 0.5137,1.43392 ± 0.00022
same,refractive index,[2]; φ2 = 0.6218,1.42736 ± 0.00022
same,refractive index,[2]; φ2 = 0.6938,1.42282 ± 0.00022
same,refractive index,[2]; φ2 = 0.7916,1.41661 ± 0.00022
same,refractive index,[2]; φ2 = 0.9154,1.40849 ± 0.00022
same,refractive index,[2]; φ2 = 0.9727,1.40473 ± 0.00022
same,excess molar enthalpy,[3]; x2 = 0.056,-0.0191 ± 0.000956 kcal/mol
same,excess molar enthalpy,[3]; x2 = 0.101,-0.0373 ± 0.0012 kcal/mol
same,excess molar enthalpy,[3]; x2 = 0.195,-0.0746 ± 0.00191 kcal/mol
same,excess molar enthalpy,[3]; x2 = 0.288,-0.103 ± 0.00239 kcal/mol
same,excess molar enthalpy,[3]; x2 = 0.388,-0.125 ± 0.00263 kcal/mol
same,excess molar enthalpy,[3]; x2 = 0.474,-0.138 ± 0.00311 kcal/mol
same,excess molar enthalpy,[3]; x2 = 0.583,-0.136 ± 0.00287 kcal/mol
same,excess molar enthalpy,[3]; x2 = 0.685,-0.124 ± 0.00263 kcal/mol
same,excess molar enthalpy,[3]; x2 = 0.786,-0.0966 ± 0.00215 kcal/mol
same,excess molar enthalpy,[3]; x2 = 0.889,-0.0574 ± 0.00143 kcal/mol
same,excess molar enthalpy,[3]; x2 = 0.94,-0.0323 ± 0.0012 kcal/mol
